In PubChem BioAssay AID1963844 (Molecular Pharmacology Branch, DTP, NCI, 2024):

Test system: 422866-222-R5-J1-PDC complex spheroid viability
Experiment: Anticancer human tumor 422866-222-R5-J1-PDC patient-derived pancreatic adenocarcinoma cell line growth inhibition [POLQ]
Conditions: for IC50: curve of first compound; for viability, T/C: stronger effect = lower value
Method in brief: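 PDC + HUVEC + MSC complex spheroids; POLQ inhibitors ± partner drugs; top conc. at/near clinical Cmax, else 10 microM (SN-38 1 microM), half-log dilutions; 37 degrees C, 5% CO2.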

[1] = second compound 0.0316 µM, first compound 0.00316 µM
[2] = second compound 0.0316 µM, first compound 0.01 µM
[3] = second compound 0.0316 µM, first compound 0.0316 µM
[4] = second compound 0.0316 µM, first compound 0.1 µM
[5] = second compound 0.0316 µM, first compound 0.316 µM
[6] = second compound 0.0316 µM, first compound 1 µM
[7] = second compound 0.1 µM, first compound 0.00316 µM
[8] = second compound 0.1 µM, first compound 0.01 µM
[9] = second compound 0.1 µM, first compound 0.0316 µM
[10] = second compound 0.1 µM, first compound 0.1 µM
[11] = second compound 0.1 µM, first compound 0.316 µM
[12] = second compound 0.1 µM, first compound 1 µM
[13] = second compound 0.316 µM, first compound 0.00316 µM
[14] = second compound 0.316 µM, first compound 0.01 µM
[15] = second compound 0.316 µM, first compound 0.0316 µM
[16] = second compound 0.316 µM, first compound 0.1 µM
[17] = second compound 0.316 µM, first compound 0.316 µM
[18] = second compound 0.316 µM, first compound 1 µM
[19] = second compound 1 µM, first compound 0.00316 µM
[20] = second compound 1 µM, first compound 0.01 µM
[21] = second compound 1 µM, first compound 0.0316 µM
[22] = second compound 1 µM, first compound 0.1 µM
[23] = second compound 1 µM, first compound 0.316 µM
[24] = second compound 1 µM, first compound 1 µM
[25] = second compound 3.16 µM, first compound 0.00316 µM
[26] = second compound 3.16 µM, first compound 0.01 µM
[27] = second compound 3.16 µM, first compound 0.0316 µM
[28] = second compound 3.16 µM, first compound 0.1 µM
[29] = second compound 3.16 µM, first compound 0.316 µM
[30] = second compound 3.16 µM, first compound 1 µM
[31] = second compound 10 µM, first compound 0.00316 µM
[32] = second compound 10 µM, first compound 0.01 µM
[33] = second compound 10 µM, first compound 0.0316 µM
[34] = second compound 10 µM, first compound 0.1 µM
[35] = second compound 10 µM, first compound 0.316 µM
[36] = second compound 10 µM, first compound 1 µM
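Further: spheroids exposed to compounds for one week before readout.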
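Wherever viability, T/C is given: percent of DMSO vehicle wells luminescence so 100% = untreated viability.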

C=CCn1c(=O)c2cnc(Nc3ccc(N4CCN(C)CC4)cc3)nc2n1-c1cccc(C(C)(C)O)n1 + Nc1ccc(C#CCN(C(=O)Cc2ncc(C(F)(F)F)cc2C(F)(F)F)c2ccc(F)cc2)nn1
IC50 (second compound 0.0316 µM): 290 nM
IC50 (second compound 0.1 µM): 270 nM
IC50 (second compound 0.316 µM): 252 nM
IC50 (second compound 1 µM): 311 nM
IC50 (second compound 3.16 µM): 251 nM
IC50 (second compound 10 µM): 257 nM
viability, T/C [1]: 88%
viability, T/C [2]: 96.6%
viability, T/C [3]: 92.1%
viability, T/C [4]: 79.7%
viability, T/C [5]: 47.8%
viability, T/C [6]: 33.7%
viability, T/C [7]: 98%
viability, T/C [8]: 102%
viability, T/C [9]: 98.2%
viability, T/C [10]: 80.8%
viability, T/C [11]: 45.2%
viability, T/C [12]: 32.8%
viability, T/C [13]: 97%
viability, T/C [14]: 89.7%
viability, T/C [15]: 99.7%
viability, T/C [16]: 71.9%
viability, T/C [17]: 46.5%
viability, T/C [18]: 34.6%
viability, T/C [19]: 97.6%
viability, T/C [20]: 91.4%
viability, T/C [21]: 115%
viability, T/C [22]: 76.2%
viability, T/C [23]: 53.5%
viability, T/C [24]: 34.3%
viability, T/C [25]: 78.1%
viability, T/C [26]: 97.1%
viability, T/C [27]: 128%
viability, T/C [28]: 69.5%
viability, T/C [29]: 53.6%
viability, T/C [30]: 36.6%
viability, T/C [31]: 106%
viability, T/C [32]: 104%
viability, T/C [33]: 103%
viability, T/C [34]: 78.7%
viability, T/C [35]: 44%
viability, T/C [36]: 35.7%

CC[C@@]1(O)C(=O)OCc2c1cc1n(c2=O)Cc2cc3c(CN(C)C)c(O)ccc3nc2-1 + Nc1ccc(C#CCN(C(=O)Cc2ncc(C(F)(F)F)cc2C(F)(F)F)c2ccc(F)cc2)nn1
IC50 (second compound 0.0316 µM): 26.3 nM
IC50 (second compound 0.1 µM): 18.4 nM
IC50 (second compound 0.316 µM): 19.5 nM
IC50 (second compound 1 µM): 10.7 nM
IC50 (second compound 3.16 µM): 19.7 nM
IC50 (second compound 10 µM): 26.6 nM
viability, T/C (second compound 0.0316 µM, first compound 0.000316 µM): 102%
viability, T/C (second compound 0.0316 µM, first compound 0.001 µM): 109%
viability, T/C [1]: 93.3%
viability, T/C [2]: 76%
viability, T/C [3]: 44%
viability, T/C [4]: 34.6%
viability, T/C (second compound 0.1 µM, first compound 0.000316 µM): 99.1%
viability, T/C (second compound 0.1 µM, first compound 0.001 µM): 87.2%
viability, T/C [7]: 89.6%
viability, T/C [8]: 63.9%
viability, T/C [9]: 37.4%
viability, T/C [10]: 33.6%
viability, T/C (second compound 0.316 µM, first compound 0.000316 µM): 85.6%
viability, T/C (second compound 0.316 µM, first compound 0.001 µM): 105%
viability, T/C [13]: 87%
viability, T/C [14]: 63.8%
viability, T/C [15]: 40.8%
viability, T/C [16]: 34.8%
viability, T/C (second compound 1 µM, first compound 0.000316 µM): 105%
viability, T/C (second compound 1 µM, first compound 0.001 µM): 108%
viability, T/C [19]: 80.5%
viability, T/C [20]: 53.6%
viability, T/C [21]: 33.3%
viability, T/C [22]: 35.7%
viability, T/C (second compound 3.16 µM, first compound 0.000316 µM): 89.2%
viability, T/C (second compound 3.16 µM, first compound 0.001 µM): 100%
viability, T/C [25]: 92.9%
viability, T/C [26]: 68.1%
viability, T/C [27]: 36.9%
viability, T/C [28]: 37%
viability, T/C (second compound 10 µM, first compound 0.000316 µM): 114%
viability, T/C (second compound 10 µM, first compound 0.001 µM): 99.4%
viability, T/C [31]: 100%
viability, T/C [32]: 75.8%
viability, T/C [33]: 44.5%
viability, T/C [34]: 31.5%

CNCc1ccc(-c2[nH]c3cc(F)cc4c3c2CCNC4=O)cc1 + Nc1ccc(C#CCN(C(=O)Cc2ncc(C(F)(F)F)cc2C(F)(F)F)c2ccc(F)cc2)nn1
IC50 (second compound 0.0316 µM): > 10000 nM
IC50 (second compound 0.1 µM): > 10000 nM
IC50 (second compound 0.316 µM): > 10000 nM
IC50 (second compound 1 µM): > 10000 nM
IC50 (second compound 3.16 µM): > 10000 nM
IC50 (second compound 10 µM): > 10000 nM
viability, T/C [3]: 78.7%
viability, T/C [4]: 93.6%
viability, T/C [5]: 77.7%
viability, T/C [6]: 104%
viability, T/C (second compound 0.0316 µM, first compound 3.16 µM): 78.8%
viability, T/C (second compound 0.0316 µM, first compound 10 µM): 76.6%
viability, T/C [9]: 106%
viability, T/C [10]: 87.5%
viability, T/C [11]: 92.4%
viability, T/C [12]: 107%
viability, T/C (second compound 0.1 µM, first compound 3.16 µM): 80.6%
viability, T/C (second compound 0.1 µM, first compound 10 µM): 82.8%
viability, T/C [15]: 87.4%
viability, T/C [16]: 109%
viability, T/C [17]: 97.1%
viability, T/C [18]: 101%
viability, T/C (second compound 0.316 µM, first compound 3.16 µM): 72.1%
viability, T/C (second compound 0.316 µM, first compound 10 µM): 79.5%
viability, T/C [21]: 89.4%
viability, T/C [22]: 89.9%
viability, T/C [23]: 93%
viability, T/C [24]: 91.9%
viability, T/C (second compound 1 µM, first compound 3.16 µM): 73.5%
viability, T/C (second compound 1 µM, first compound 10 µM): 63%
viability, T/C [27]: 100%
viability, T/C [28]: 96.4%
viability, T/C [29]: 105%
viability, T/C [30]: 89.7%
viability, T/C (second compound 3.16 µM, first compound 3.16 µM): 87.4%
viability, T/C (second compound 3.16 µM, first compound 10 µM): 81.9%
viability, T/C [33]: 96.1%
viability, T/C [34]: 109%
viability, T/C [35]: 89.8%
viability, T/C [36]: 64.7%
viability, T/C (second compound 10 µM, first compound 3.16 µM): 79%
viability, T/C (second compound 10 µM, first compound 10 µM): 69%
